In US9815820B2, “Rho kinase inhibitors” (priority 2012, dated 2017):
“Also recorded” adds a separate entry of the source.

Key:
[1] = test system: CD4+ T cells from RA patients; experiment: cytokine secretion ex vivo in CD3/CD28 stimulated CD4+ T cells from RA patients; assay type: cell-based, human
CD4+ human T cells [2] = experiment: cytokine secretion in anti-CD3/CD28 stimulated CD4+ T cells in vitro; assay type: cell-based; details: anti-CD3/CD28 stimulation
CD4+CD25+ human Tregs = experiment: Treg suppression of IL-17 secretion in CD4+CD25- effector T cells; assay type: cell-based; details: Tregs treated 3 hours; Treg:Teff 1:4 and 1:9
STAT3 phosphorylation = STAT3 phosphorylation in T cells; assay type: cell-based, human
CD4+ human T cells [3] = experiment: proliferation of T cells in response to TCR stimulation in vitro; assay type: cell-based; details: listed as KD025
PBMCs = experiment: ex vivo anti-CD3/CD28 stimulation of cytokine production in PBMCs isolated from treated patients; design: species or system human; details: 120 mg/day on days 1 and 8-14
human CD4+ T cells = experiment: Foxp3 expression in CD4+ T cells after Th17 skewing activation; assay type: cell-based; details: 5 days of Th17 skewing activation
[4] = test system: TGF-β-induced STAT3, MLC and SMAD2/3 phosphorylation; experiment: TGF-β-induced phosphorylation of STAT3, MLC and SMAD2/3 in Tregs
[5] = CD4+ T cells from RA patients, ex vivo, listed as KD025

CC(C)NC(=O)COc1cccc(-c2nc(Nc3ccc4[nH]ncc4c3)c3ccccc3n2)c1 [SLx-2119]
frequencies of IL-17 and IFN-γ-producing cells ([1]; 2 RA patients, intracellular staining): significantly reduced the frequencies | IFN-γ secretion [1, 5]: inhibits; also recorded: significantly down-regulated | IL-17 secretion [1, 5]: inhibits; also recorded: significantly down-regulated | IL-21 secretion [1, 5]: inhibits; also recorded: significantly down-regulated | IFN-γ secretion (CD4+ human T cells [2]): less robust and significant only at high dose (10 μM) | IL-2 secretion (CD4+ human T cells [2]): observed only at the highest concentration (10 μM) | IL-17 secretion (CD4+ human T cells [2]; listed as KD025): inhibits; also recorded: significantly inhibited | IL-21 secretion (CD4+ human T cells [2]; listed as KD025): inhibits; also recorded: significantly inhibited | ability of Tregs to suppress IL-17 secretion in CD4+CD25- effector T cells (CD4+CD25+ human Tregs): significantly increased | STAT3 phosphorylation (STAT3 phosphorylation; Th17-skewing conditions 5 days, then treatment 3 hours): STAT3 phosphorylation was reduced | phosphorylation of STAT3, IRF4 and RORγt (STAT3 phosphorylation; anti-CD3/CD28, TGF-β and IL-1β, 48 hours (FIG. 9C)): reduced phosphorylation of STAT3, as well as IFR4 and RORγT, was confirmed | phosphorylation of STAT3 (STAT3 phosphorylation; pre-treatment, then anti-CD3/CD28 stimulation): reduced phosphorylation of STAT3 | proliferation in response to TCR stimulation (CD4+ human T cells [3]): inhibits; also recorded: down-regulated their ability to proliferate | IFN-γ in PBMCs (PBMCs): No effect | induction of IL-17 secretion in PBMCs (PBMCs): significantly inhibited in PBMCs isolated from four of five patients | induction of IL-21 secretion in PBMCs (PBMCs): significantly inhibited in PBMCs from all five patients | percentage of Foxp3+ cells (human CD4+ T cells): significantly increased | phosphorylation of SMAD2/3 [4]: remains intact | TGF-β-induced MLC phosphorylation ([4]; dose-dependent): down-regulates | TGF-β-induced STAT3 phosphorylation ([4]; dose-dependent): down-regulates
